# From a flash point compilation (Sun et al. 2020)
row,Structure (SMILES),flash point
1,CCCCCC[Si](OC)(OC)OC [Hexyltrimethoxysilane],62.00 °C
2,CC(=O)O[Si](C)(OC(C)=O)OC(C)=O [Methyltriacetoxysilane],85.00 °C
3,CO[Si](C)(OC)OC [Methyltrimethoxysilane],11.00 °C
4,C[Si](C)(C)O[Si](C)(C)O[Si](C)(C)C [Octamethyltrisiloxane],30.00 °C
5,CCCO[Si](OCCC)(OCCC)OCCC [Tetra-n-propoxysilane],95.00 °C
6,CCO[Si](OCC)(OCC)OCC [Tetraethoxysilane],50.00 °C
7,Clc1ccc([Si](Cl)(Cl)Cl)cc1 [Trichloro(p-chlorophenyl)silane],123.90 °C
8,C[Si](C)(C)Br [Trimethylbromosilane],-3.00 °C
9,C[Si](C)(C)c1ccccc1 [Trimethylphenylsilane],40.00 °C
10,C[Si](C)(C)O[SiH](O[Si](C)(C)C)O[Si](C)(C)C [Tris(trimethylsiloxy)silane],50.00 °C
11,C=C[Si](OCC)(OCC)OCC [Vinyltriethoxysilane],34.00 °C
12,CCCC[Si](Cl)(Cl)Cl [n-Butyltrichlorosilane],54.00 °C
13,CCCCCCC[Si](C)(Cl)Cl [n-Heptylmethyldichlorosilane],66.00 °C
14,CCCCCCC[Si](Cl)(Cl)Cl [n-Heptyltrichlorosilane],64.00 °C

# Now from value to molecule:
row,flash point,Structure (SMILES)
1,15.00 °C,C[Si](C)(C)I [Iodotrimethylsilane]
2,138.00 °C,C[Si](Cl)(c1ccccc1)c1ccccc1 [Methyldiphenylchlorosilane]
3,144.00 °C,C[Si](C)(C)O[Si](C)(C)O[Si](C)(C)O[Si](C)(C)O[Si](C)(C)O[Si](C)(C)O[Si](C)(C)O[Si](C)(C)C [Octadecamethyloctasiloxane]
4,57.00 °C,C[Si]1(C)O[Si](C)(C)O[Si](C)(C)O[Si](C)(C)O1 [Octamethylcyclotetrasiloxane]
5,60.00 °C,Cl[SiH](Cl)c1ccccc1 [Phenyldichlorosilane]
6,120.00 °C,CCO[Si](OCC)(OCC)c1ccccc1 [Phenyltriethoxysilane]
7,102.00 °C,C[Si](C)(C)O[Si](C)(C)O[Si](C)(C)O[Si](C)(C)O[Si](C)(C)O[Si](C)(C)C [Tetradecamethylhexasiloxane]
8,32.00 °C,CC[Si](CC)(CC)CC [Tetraethylsilane]
9,18.00 °C,C=C[Si](C=C)(C=C)C=C [Tetravinylsilane]
10,30.00 °C,CC[Si](Cl)(CC)CC [Triethylchlorosilane]
11,37.00 °C,CC(C)[SiH](C(C)C)C(C)C [Triisopropylsilane]
12,0.00 °C,C[Si](C)(C)OC(=O)C(F)(F)F [Trimethylsilyltrifluoroacetate]
13,21.00 °C,CC(C)(C)[Si](Cl)(Cl)Cl [t-Butyltrichlorosilane]

# Remark: another data set of the same source
row,Structure (SMILES),flash point
1,"CCC(C)C(C)(C)C (configuration not stated) [2,2,3-Trimethylpentane]",-3 °C
2,"CCC(C)(C)CC(C)(C)C [2,2,4,4-Tetramethylhexane]",31 °C
3,"CCCCCC(C)(C)C [2,2-Dimethylheptane]",24 °C
4,"CCCCC(C)(C)C [2,2-Dimethylhexane]",-4 °C
5,"CC(C)C(C)C(C)C(C)C (configuration not stated) [2,3,4,5-Tetramethylhexane]",31 °C
6,"CCCCC(C)C(C)C (configuration not stated) [2,3-Dimethylheptane]",15 °C
7,"CCCC(C)CC(C)C (configuration not stated) [2,4-Dimethylheptane]",15 °C
8,"CCC(C)CC(C)C (configuration not stated) [2,4-Dimethylhexane]",10 °C
9,"CCC(C)(C)C(C)(C)CC [3,3,4,4-Tetramethylhexane]",31 °C
10,"CCC(CC)C(C)(C)C [3-Ethyl-2,2-dimethylpentane]",13 °C
11,CCC(C)C(CC)CC (configuration not stated) [3-Ethyl-4-methylhexane],15 °C
12,CCC(C)CC(CC)CC (configuration not stated) [3-Ethyl-5-methylheptane],31 °C
13,CCC(C)(CC)CC [3-Methyl-3-ethylpentane],3 °C
14,CCCCCC(C)CC (configuration not stated) [3-Methyloctane],24 °C
15,CCC(C)CC [3-Methylpentane],-32 °C

# The next lines start with the values.
row,flash point,Structure (SMILES)
1,31 °C,"CCC(C)C(C)C(C)(C)C (configuration not stated) [2,2,3,4-Tetramethylhexane]"
2,95 °C,"CC(CC(C)(C)C)CC(C)(C)CC(C)(C)C (configuration not stated) [2,2,4,4,6,8,8-Heptamethylnonane]"
3,15 °C,"CCC(C)CC(C)(C)C (configuration not stated) [2,2,4-Trimethylhexane]"
4,-23 °C,"CCCC(C)(C)C [2,2-Dimethylpentane]"
5,-65 °C,"CC(C)(C)C [2,2-Dimethylpropane]"
6,15 °C,"CCCC(C)(C)C(C)C [2,3,3-Trimethylhexane]"
7,31 °C,"CCC(C)(C)C(C)C(C)C (configuration not stated) [2,3,4,4-Tetramethylhexane]"
8,-0 °C,"CC(C)C(C)C(C)C [2,3,4-Trimethylpentane]"
9,41 °C,"CCCCCC(C)C(C)C (configuration not stated) [2,3-Dimethyloctane]"
10,15 °C,"CCC(C)(C)CC(C)C [2,4,4-Trimethylhexane]"
11,31 °C,"CC(C)CC(C)CC(C)C [2,4,6-Trimethylheptane]"
12,41 °C,"CC(C)CCCCC(C)C [2,7-Dimethyloctane]"
13,-23 °C,CCCC(C)C [2-Methylpentane]
14,-1 °C,"CCCC(C)(C)CC [3,3-Dimethylhexane]"
15,41 °C,"CCCCCC(C)(C)CC [3,3-Dimethyloctane]"
16,4 °C,"CCC(C)C(C)CC (configuration not stated) [3,4-Dimethylhexane]"
17,15 °C,"CCC(C)CC(C)CC (configuration not stated) [3,5-Dimethylheptane]"
18,41 °C,"CCCC(C)CC(C)CC (configuration not stated) [3,5-Dimethyloctane]"
19,41 °C,CCCCC(C)(CC)CC [3-Ethyl-3-methylheptane]
20,-15 °C,CCCC(C)CC (configuration not stated) [3-Methylhexane]
21,15 °C,"CCCC(C)(C)CCC [4,4-Dimethylheptane]"
22,15 °C,CCCC(CC)CCC [4-Ethylheptane]

# Remark: another data set of the same source
row,Structure (SMILES),flash point
1,"CC1(C)CCCCC1 [1,1-dimethylcyclohexane]",7 °C
2,"Cc1cc(C)c(C)c(C)c1 [1,2,3,5-tetramethylbenzene]",63 °C
3,"CC1=CC(C)CCC1 (configuration not stated) [1,3-dimethylcyclohexene]",12 °C
4,"CCC(C)(C)C(C)(C)C [2,2,3,3-tetramethylpentane]",16 °C
5,"CCCCC(C)(C)C [2,2-dimethylhexane]",-3 °C
6,"CCCCCCC(C)(C)C [2,2-dimethyloctane]",31 °C
7,"CCCCCC(C)C(C)C (configuration not stated) [2,3-dimethyloctane]",36 °C
8,CCCCCCC(C)C [2-methyloctane],24 °C
9,CC=C(CC)CC [3-ethyl-2-pentene],-6 °C

# The next lines start with the values.
row,flash point,Structure (SMILES)
1,15 °C,"CCC(C)CCC(C)C (configuration not stated) [2,5-dimethylheptane]"
2,1 °C,C=CC(CC)CCC (configuration not stated) [3-ethyl-1-hexene]
3,-17 °C,C=CC(CC)CC [3-ethyl-1-pentene]
4,15 °C,"CCC(C(C)C)C(C)C [3-ethyl-2,4-dimethylpentane]"
